Data reported in patent publication US9315475B2 (MERCK SHARP & DOHME CORP., priority 2011, dated 2016).

Columns and labels:
HIV-1 (H9IIIB strain) = experiment: Antiviral acute infection assay in cell culture (Spread); type: cell-based; conditions: Human immunodeficiency virus 1, T-lymphoid, HIV-1 H9IIIB infection of MT-4 human T-lymphoid cells in 10% FBS; mean of at least two independent experiments
Source text: Antiviral Assays in Cell Culture (“Spread”)
Acute Infection Assay (“Spread”) data were generated using HIV-1 (H9IIIB strain) infection of MT-4 human T-lymphoid cells in 10% FBS, and according to the methods disclosed by J. P. Vacca et al, “L-735,524: An orally bioavailable human immunodeficiency virus type 1 protease inhibitor,” Proc. Natl. Acad. Sci. USA, Vol. 91, pp. 4096-4100 (April 1994).

wildtype HIV-1 protease = target: T1, wildtype HIV-1 protease (Human immunodeficiency virus type 1 group M subtype B, UniProt P04585); experiment: Assay for inhibition of microbial expressed HIV protease (Pepcleav); type: biochemical; conditions: wild type HIV-1 protease expressed in E. coli, peptide substrate, pH 5.5; mean of at least two independent experiments; read-out: Pepcleav
T1 construct: the wildtype HIV-1 protease (which was expressed in Escherichia coli); made in house; host or cells: Escherichia coli
How it was run: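 Cleavage of 400 μM peptide substrate Val-Ser-Gln-Asn-(βnaphthyl)Ala-Pro-Ile-Val by 20 pM wild-type enzyme (E. coli-expressed) ran 1 h at 30 °C after 30 min inhibitor preincubation, pH 5.5 acetate buffer. Inhibition derived from product peak area by C18 LC with multiple-reaction-monitoring MS after formic acid quench.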

SMILES | EC50 (HIV-1 (H9IIIB strain)) [nM] | IC50 (wildtype HIV-1 protease) [nM]
N[C@H](C(=O)Nc1cncc(F)c1CC[C@@H]1CN[C@H](COC(=O)NC2CC(F)(F)C2)CO1)C(c1ccc(F)cc1)c1ccc(F)cc1 [Example 217, N-(4-{2-[(2R,5S)-5-({[(3,3-difluorocyclobutyl)carbamoyl]oxy}methyl)morpholin-2-yl]ethyl}-5-fluoropyridin-3-yl)-4-fluoro-β-(4-fluorophenyl)-L-phenylalaninamide] | 94 | 2.7
N[C@H](C(=O)Nc1cncc(F)c1CC[C@@H]1CN[C@H](COC(=O)NCC(F)(F)F)CO1)[C@H](c1ccc(F)cc1)c1ccc(Cl)c(F)c1 [Example 221, (βR)-β-(4-chloro-3-fluorophenyl)-4-fluoro-N-(5-fluoro-4-{2-[(2R,5S)-5-({[(2,2,2-trifluoro-ethyl)carbamoyl]oxy}methyl)morpholin-2-yl]ethyl}pyridin-3-yl)-L-phenylalaninamide] | 22 | 1.1
N[C@H](C(=O)Nc1cncc(F)c1CC[C@@H]1CN[C@H](COC(=O)NC[C@@H]2CCC(=O)N2)CO1)C(c1ccc(F)cc1)c1ccc(F)cc1 [Example 235, 4-fluoro-N-(5-fluoro-4-{2-[(2R,5S)-5-{[({[(2S)-5-oxopyrrolidin-2-yl]methyl}carbamoyl)oxy]methyl}morpholin-2-yl]ethyl}pyridin-3-yl)-β-(4-fluorophenyl)-L-phenylalaninamide] | 5000 | 97
N[C@H](C(=O)Nc1cccc(F)c1CC[C@@H]1CN[C@H](COC(=O)NCC(F)(F)F)CO1)[C@H](c1ccccc1)c1ccc(OC(F)(F)F)cc1 [Example 236, (βR)-N-(3-fluoro-2-{2-[(2R,5S)-5-({[(2,2,2-trifluoroethyl)carbamoyl]oxy}methyl)morpholin-2-yl]ethyl}phenyl)-β-phenyl-O-(trifluoromethyl)-L-tyrosinamide] | 580 | 69
N[C@H](C(=O)Nc1cc(F)ccc1CC[C@@H]1CN[C@H](COC(=O)NCC(F)F)CO1)C(c1ccccc1)c1ccccc1 [Example 237, N-(2-{2-[(2R,5S)-5-({[(2,2-difluoroethyl)carbamoyl]oxy}methyl)morpholin-2-yl]ethyl}-5-fluorophenyl)-β-phenyl-L-phenylalaninamide] | 190 | 69
N[C@H](C(=O)Nc1cncc(F)c1CC[C@@H]1CN[C@H](COC(=O)NCC(F)(F)F)CO1)[C@H](c1ccccc1)c1ccc(OC(F)(F)F)cc1 [Example 238, (βR)-N-(5-fluoro-4-{2-[(2R,5S)-5-({[(2,2,2-trifluoroethyl)carbamoyl]oxy}methyl)morpholin-2-yl]ethyl}pyridin-3-yl)-β-phenyl-O-(trifluoromethyl)-L-tyrosinamide] | 470 | 69
N[C@H](C(=O)Nc1cncc(F)c1CC[C@@H]1CN[C@H](COC(=O)NCc2cc3ccccc3cn2)CO1)C(c1ccc(F)cc1)c1ccc(F)cc1 [Example 239, {(3S,6R)-6-[2-(3-fluoro-5-{[4-fluoro-β-(4-fluorophenyl)-L-phenylalanyl]amino}pyridin-4-yl)ethyl]morpholin-3-yl}methyl (isoquinolin-3-ylmethyl)carbamatc] | 420 | 45
N[C@H](C(=O)Nc1cncc(F)c1CC[C@@H]1CN[C@H](COC(=O)NCC2CNC(=O)O2)CO1)C(c1ccc(F)cc1)c1ccc(F)cc1 (stereo partly drawn) [Example 240, 4-fluoro-N-[5-fluoro-4-(2-{(2R,5S)-5-[({[(2-oxo-1,3-oxazolidin-5-yl)methyl]carbamoyl}oxy)methyl]morpholin-2-yl}ethyl)pyridin-3-yl]-β-(4-fluorophenyl)-L-phenylalaninamide] | 5000 | 39
N[C@H](C(=O)Nc1cccc(F)c1CC[C@@H]1CN[C@H](COC(=O)NCC(F)(F)F)CO1)[C@H](c1ccccc1)c1ccc2ccccc2c1 [Example 241, (βR)-N-(3-fluoro-2-{2-[(2R,5S)-5-({[(2,2,2-trifluoroethyl)carbamoyl]oxy}methyl)morpholin-2-yl]ethyl}phenyl)-β-naphthalen-2-yl-L-phenylalaninamide] | 360 | 32
N[C@H](C(=O)Nc1cncc(F)c1CC[C@@H]1CN[C@H](COC(=O)NCc2nc3ccncc3[nH]2)CO1)C(c1ccc(F)cc1)c1ccc(F)cc1 [Example 242, 4-fluoro-N-(5-fluoro-4-{2-[(2R,5S)-5-({[(3H-imidazo[4,5-c]pyridin-2-ylmethyl)carbamoyl]oxy}methyl)morpholin-2-yl]ethyl}pyridin-3-yl)-β-(4-fluorophenyl)-L-phenylalaninamide] | 600 | 25
N[C@H](C(=O)Nc1cncc(F)c1CC[C@@H]1CN[C@H](COC(=O)NCc2ccc3ccccc3n2)CO1)C(c1ccc(F)cc1)c1ccc(F)cc1 [Example 243, {(3S,6R)-6-[2-(3-fluoro-5-{[4-fluoro-β-(4-fluorophenyl)-L-phenylalanyl]amino}pyridin-4-yl)ethyl]morpholin-3-yl}methyl (quinolin-2-ylmethyl)carbamate] | 240 | 24
N[C@H](C(=O)Nc1cccc(F)c1CC[C@@H]1CN[C@H](COC(=O)NCC(F)(F)F)CO1)[C@H](c1ccccc1)c1cccc(Cl)c1 [Example 244, (βR)-3-chloro-N-(3-fluoro-2-{2-[(2R,5S)-5-({[(2,2,2-trifluoroethyl)carbamoyl]oxy}methyl)morpholin-2-yl]ethyl}phenyl)-β-phenyl-L-phenylalaninamide] | 120 | 22
N[C@H](C(=O)Nc1cc(F)cc(F)c1OC[C@@H]1CN[C@H](COC(=O)NCC(F)(F)F)CO1)C(c1ccc(F)cc1)c1ccc(F)cc1 [Example 245, N-(3,5-difluoro-2-{[(2S,5S)-5-({[(2,2,2-trifluoroethyl)carbamoyl]oxy}methyl)morpholin-2-yl]methoxy}phenyl)-4-fluoro-β-(4-fluorophenyl)-L-phenylalaninamide] | 360 | 16
N[C@H](C(=O)Nc1cncc(F)c1CC[C@@H]1CN[C@H](COC(=O)NCC(F)(F)F)CO1)[C@H](c1ccc(F)cc1)c1ccc(OC(F)(F)F)cc1 [Example 246, (βS)-β-(4-fluorophenyl)-N-(5-fluoro-4-{2-[(2R,5S)-5-({[(2,2,2-trifluoroethyl)carbamoyl]oxy}methyl)morpholin-2-yl]ethyl}pyridin-3-yl)-O-(trifluoromethyl)-L-tyrosinamide] | 390 | 13
N[C@H](C(=O)Nc1cc(F)cc(F)c1CC[C@@H]1CN[C@H](COC(=O)NCC(F)(F)F)CO1)C(c1ccc(F)cc1)c1ccc(F)cc1 [Example 247, N-(3,5-difluoro-2-{2-[(2R,5S)-5-({[(2,2,2-trifluoroethyl)carbamoyl]oxy}methyl)morpholin-2-yl]ethyl}phenyl)-4-fluoro-β-(4-fluorophenyl)-L-phenylalaninamide] | 260 | 12
CCOCCNC(=O)OC[C@@H]1CO[C@H](CCc2c(F)cncc2NC(=O)[C@@H](N)C(c2ccc(F)cc2)c2ccc(F)cc2)CN1 [Example 248, N-(4-{2-[(2R,5S)-5-({[(2-ethoxyethyl)carbamoyl]oxy}methyl)morpholin-2-yl]ethyl}-5-fluoropyridin-3-yl)-4-fluoro-β-(4-fluorophenyl)-L-phenylalaninamide] | 55 | 9.8
N[C@H](C(=O)Nc1cncc(F)c1CC[C@@H]1CN[C@H](CO)CO1)[C@@H](c1ccccc1)c1ccnc2ccccc12 [Example 249, (βS)-N-(5-fluoro-4-{2-[(2R,5R)-5-(hydroxymethyl)morpholin-2-yl]ethyl}pyridin-3-yl)-β-quinolin-4-yl-L-phenylalaninamide] | 3000 | 9.4
COc1ccc([C@H](c2ccc(F)cc2)[C@H](N)C(=O)Nc2cncc(F)c2CC[C@@H]2CN[C@H](COC(=O)NCC(F)(F)F)CO2)cc1 [Example 250, (βR)-β-(4-fluorophenyl)-N-(5-fluoro-4-{2-[(2R,5S)-5-({[(2,2,2-trifluoroethyl)carbamoyl]oxy}methyl)morpholin-2-yl]ethyl}pyridin-3-yl)-O-methyl-L-tyrosinamide] | 63 | 8.3
N[C@H](C(=O)Nc1cccc(F)c1CC[C@@H]1CN[C@H](COC(=O)NCC(F)(F)F)CO1)[C@@H](c1ccc(F)cc1)c1cc(F)cc(F)c1 [Example 251, (βS)-3,5-difluoro-β-(4-fluorophenyl)-N-(3-fluoro-2-{2-[(2R,5S)-5-({[(2,2,2-trifluoroethyl)carbamoyl]oxy}methyl)morpholin-2-yl]ethyl}phenyl)-L-phenylalaninamide] | 32 | 8.2
CN1CCC(NC(=O)OC[C@@H]2CO[C@H](CCc3c(F)cncc3NC(=O)[C@@H](N)C(c3ccc(F)cc3)c3ccc(F)cc3)CN2)C1=O (stereo partly drawn) [Example 252, 4-fluoro-N-(5-fluoro-4-{2-[(2R,5S)-5-({[(1-methyl-2-oxopyrrolidin-3-yl)carbamoyl]oxy}methyl)morpholin-2-yl]ethyl}pyridin-3-yl)-β-(4-fluorophenyl)-L-phenylalaninamide] | 160 | 7.7
N[C@H](C(=O)Nc1cncc(F)c1CC[C@@H]1CN[C@H](COC(=O)NC2CCCOC2)CO1)C(c1ccc(F)cc1)c1ccc(F)cc1 (stereo partly drawn) [Example 253, 4-fluoro-β-(4-fluorophenyl)-N-(5-fluoro-4-{2-[(2R,5S)-5-{[(tetrahydro-2H-pyran-3-ylcarbamoyl)oxy]methyl}morpholin-2-yl]ethyl}pyridin-3-yl)-L-phenylalaninamide] | 24 | 7.7
